Article PMC10213937 (Frontiers in Pharmacology, 2023)
Read-outs that look alike come from different tables or passages of the source.

Experiments:
[1] = Stability in rat blood plasma (HPLC-MS/MS validation); settings: n = 5
[2] = Plasma concentrations of ATO, metabolites and VOR in patients (HPLC-MS/MS); assay type: in vivo, human; parameters: Concentration in human blood samples: unit not given here; settings: for Concentration in human blood samples: n = 3; for Decrease of metabolite concentration in the VOR group: VOR + ATO vs ATO alone
Excerpt: The experimental procedures were approved by the Ethics Committee of Shenzhen Hospital of Southern Medical University, and conducted in accordance with the Declaration of Helsinki (No. NYSZYYEC20180017). Subjects were selected from patients seen in the Department of Critical Care Medicine of Shenzhen Hospital of Southern Medical University, who were diagnosed with fungal infections complicated by cardiovascular and cerebrovascular diseases. Written informed consent was obtained from three patients aged 20-55 years. […] All procedures followed the ethical principles of the World Medical Association (WMA) Declaration of Helsinki and were approved by the Medical Ethics Committee of Shenzhen Hospital. […] Prelude […] The injection volume is 2 μL.

ABCC2 = ABCC2 (Homo sapiens, UniProt Q92887); assay: ATO uptake/transport in cell transport models, ABCC2; assay type: cell-based; settings: ATO as substrate, MK571 20 μM
ABCC2, sequence (Q92887 whole entry): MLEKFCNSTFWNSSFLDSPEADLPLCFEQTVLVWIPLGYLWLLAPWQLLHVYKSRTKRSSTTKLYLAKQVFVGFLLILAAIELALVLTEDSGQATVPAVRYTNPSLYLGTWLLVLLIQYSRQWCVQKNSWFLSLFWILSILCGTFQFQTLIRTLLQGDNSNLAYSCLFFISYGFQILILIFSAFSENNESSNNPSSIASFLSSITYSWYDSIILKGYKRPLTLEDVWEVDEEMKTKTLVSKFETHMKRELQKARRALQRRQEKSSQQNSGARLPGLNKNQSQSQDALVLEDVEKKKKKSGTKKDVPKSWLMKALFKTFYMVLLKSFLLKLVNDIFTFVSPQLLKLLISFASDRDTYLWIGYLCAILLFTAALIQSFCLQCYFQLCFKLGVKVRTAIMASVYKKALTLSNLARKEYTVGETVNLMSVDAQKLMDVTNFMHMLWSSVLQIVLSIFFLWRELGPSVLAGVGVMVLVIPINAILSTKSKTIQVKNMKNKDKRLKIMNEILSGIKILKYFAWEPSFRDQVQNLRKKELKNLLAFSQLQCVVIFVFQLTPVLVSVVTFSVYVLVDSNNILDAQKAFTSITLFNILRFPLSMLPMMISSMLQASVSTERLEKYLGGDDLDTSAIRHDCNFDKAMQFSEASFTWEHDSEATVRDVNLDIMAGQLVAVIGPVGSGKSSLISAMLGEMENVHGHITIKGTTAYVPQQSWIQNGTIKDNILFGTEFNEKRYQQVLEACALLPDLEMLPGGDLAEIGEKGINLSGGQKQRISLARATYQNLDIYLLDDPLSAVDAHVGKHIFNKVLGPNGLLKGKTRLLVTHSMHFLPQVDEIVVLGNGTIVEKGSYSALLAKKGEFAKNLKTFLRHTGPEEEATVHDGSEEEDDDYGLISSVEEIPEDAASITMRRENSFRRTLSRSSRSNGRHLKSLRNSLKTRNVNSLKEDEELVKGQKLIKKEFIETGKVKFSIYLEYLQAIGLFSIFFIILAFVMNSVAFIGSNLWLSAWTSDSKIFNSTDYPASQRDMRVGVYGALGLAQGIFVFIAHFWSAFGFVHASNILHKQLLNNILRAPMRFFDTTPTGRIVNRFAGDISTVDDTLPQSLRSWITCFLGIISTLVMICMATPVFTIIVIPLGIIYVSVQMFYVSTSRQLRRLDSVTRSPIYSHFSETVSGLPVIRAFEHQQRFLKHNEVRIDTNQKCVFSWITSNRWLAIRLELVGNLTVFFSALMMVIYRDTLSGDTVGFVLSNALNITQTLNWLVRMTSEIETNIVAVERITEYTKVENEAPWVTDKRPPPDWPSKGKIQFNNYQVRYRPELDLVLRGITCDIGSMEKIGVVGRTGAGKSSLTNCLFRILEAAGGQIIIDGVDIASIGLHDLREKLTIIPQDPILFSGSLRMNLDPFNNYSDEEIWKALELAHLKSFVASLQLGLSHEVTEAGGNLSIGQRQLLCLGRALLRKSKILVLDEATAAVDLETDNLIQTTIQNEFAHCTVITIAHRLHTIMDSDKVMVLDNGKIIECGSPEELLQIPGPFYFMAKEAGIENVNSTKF

CYP3A [3] = assay: in vitro; settings: rat, microsomes
[4] = rat
CYP3A [5] = assay: Inhibition by VOR of ATO metabolism in rat liver microsomes; assay type: in vitro ADME; settings: pH 7.4, probe atorvastatin (ATO), 2 μM
Protocol: The incubations were performed in duplicate.

[6] = Pharmacokinetic interaction study in rats, Study II: VOR with or without ATO; assay type: in vivo; settings: male, Sprague-Dawley, rat, plasma, po, 20 mg/kg; for AUC(0-t): read-out: AUC0–24h
Protocol: Considering the clinical dosage of each drug and the dose equivalence between rats and human subjects, the corresponding quantity of drug powder was taken and resuspended with normal saline to prepare the drug-containing administration solution before treatment.
Treatment of the blood plasma: 40 µL of blood plasma was mixed with 10 µL of internal standard working solution (500 ng/ml) and acidified with 100 µL CH3COONa (0.1 mol/L). After the methyl tert-butyl (1 ml) was added, the mixture was vortexed for 5 min and centrifuged at 3000 r/min for 10 min at 4°C. The supernatant was removed into another 10 ml conical glass tube and dried in a rotary evaporator at 45°C. The residue was redissolved in 100 µL methanol and vortexed for 1 min, followed by HPLC-MS/MS analysis.
A Thermo Scientific™ TSQ Quantiva™ triple-stage quadrupole mass spectrometer (Thermo Fisher Scientific, MA, USA) equipped with a Thermo Scientific™ OptaMax™ NG ion source was used for the experiments. Prelude SPLC™ System samples, pretreatment technology (TurboFlow Eddy current purification), and a Thermo Scientific liquid chromatography system were also connected to the mass spectrometer. The HPLC conditions were as follows: column, Thermo Hypersil Gold C18 column (2.1 × 100 mm, 1.9 μm), column temperature maintained at 40 °C; TurboFlow column, Thermo Cyclone TM-P (0.5 × 50 mm) (ThermoFisher Scientific, MA, USA). The injection volume is 2 μL.
The analytes were quantified by selective reaction monitoring (SRM) that used heating electrospray ionization (H-ESI) in the positive ion mode. The main working parameters of the mass spectrometry were regulated as follows: ion spray voltage, 3 kV; capillary temperature, 350°C; sheath gas (N2) flow, 45 Arb; auxiliary gas (N2) flow, 10 Arb; and collision gas (Ar) flow, 2 mTorr. […] Thermo Scientific™ Pinpoint™ software version 1.3 (ThermoFisher Scientific, MA, USA) was used for data acquisition.
The blood samples (0.2 ml aliquots) were collected after taking a single dose of the test drug, which was the same as described in Study I. The blood samples were preserved on ice for further processing; after centrifuging at 4000 rpm for 5 min, the plasma samples were obtained and stored at −80°C until further analysis was performed. […] Non-compartmental pharmacokinetic analysis of plasma data was conducted using DAS (2.0 version, BioGuider Co., Shanghai, China) to calculate the parameters in the pharmacokinetic study.

[7] = 24 h at 25℃, nominal 0.05 ng/mL
[8] = three freeze-thaw cycle (−80℃/25℃), nominal 0.05 ng/mL
[9] = three freeze-thaw cycle (−80℃/25℃), nominal 5 ng/mL
[10] = three freeze-thaw cycle (−80℃/25℃), nominal 80 ng/mL
[11] = ATO 20 mg alone, 0 h after taking ATO
[12] = ATO 20 mg alone, 1 h after taking ATO
[13] = ATO 20 mg alone, 2 h after taking ATO
[14] = ATO 20 mg alone, 12 h after taking ATO
[15] = ATO 20 mg alone, 24 h after taking ATO
[16] = VOR + ATO (VOR iv 6 mg/kg day 1, 4 mg/kg days 2–3), 0 h after taking ATO
[17] = first of four printed values (1 h by Table 1)
[18] = fourth of four printed values (24 h by Table 1)
[19] = second of four printed values (2 h by Table 1)
[20] = third of four printed values (12 h by Table 1)
[21] = VOR + ATO, 1 h after taking ATO
[22] = VOR + ATO, 2 h after taking ATO
[23] = VOR + ATO, 12 h after taking ATO
[24] = VOR + ATO, 24 h after taking ATO
[25] = ATO 2 mg/kg + VOR 20 mg/kg oral

| Stability, %RE [1, 7] [%] | Stability, measured concentration (mean ± SD) [1, 7] [ng/mL] | Stability, %RE ([1]; 24 h at 25℃, nominal 5 ng/mL) [%] | Stability, measured concentration (mean ± SD) ([1]; 24 h at 25℃, nominal 5 ng/mL) [ng/mL] | Stability, %RE ([1]; 24 h at 25℃, nominal 80 ng/mL) [%] | Stability, measured concentration (mean ± SD) ([1]; 24 h at 25℃, nominal 80 ng/mL) [ng/mL] | Stability, %RE [1, 8] [%] | Stability, measured concentration (mean ± SD) [1, 8] [ng/mL] | Stability, %RE [1, 9] [%] | Stability, measured concentration (mean ± SD) [1, 9] [ng/mL] | Concentration in human blood samples [2, 11] | Concentration in human blood samples [2, 12] | Concentration in human blood samples [2, 13] | Concentration in human blood samples [2, 14] | Concentration in human blood samples [2, 15] | Concentration in human blood samples [2, 16] | Concentration in human blood samples [2, 21] | Concentration in human blood samples [2, 22] | Concentration in human blood samples [2, 23] | Concentration in human blood samples [2, 24] | SMILES | other results |
| --- | --- | --- | --- | --- | --- | --- | --- | --- | --- | --- | --- | --- | --- | --- | --- | --- | --- | --- | --- | --- | --- |
| -0.35 | 0.047 ± 0.005 | -8.25 | 4.538 ± 0.424 | -6.25 | 76.114 ± 5.314 | -8.35 | 0.044 ± 0.004 | -1.35 | 4.554 ± 0.568 | 3.401 ± 1.028 | 21.602 ± 1.929 | 15.196 ± 1.779 | 10.106 ± 2.969 | 3.950 ± 1.867 | 4.239 + 2.160 | 5.543 + 2.235 | 10.100 + 1.896 | 4.475 + 2.687 | 2.200 + 1.184 | CC(C)c1c(C(=O)Nc2ccccc2O)c(-c2ccccc2)c(-c2ccc(F)cc2)n1CCC(O)CC(O)CC(=O)O (centres unmarked) [2-Hydroxy-ATO, 2-hydroxy-ATO] | Stability, %RE [1, 10]: -10.28%; Stability, measured concentration (mean ± SD) [1, 10]: 72.580 ± 4.221 ng/mL; Decrease of metabolite concentration in the VOR group [2, 17]: 74.34%; Decrease of metabolite concentration in the VOR group [2, 18]: 44.30%; Decrease of metabolite concentration in the VOR group [2, 19]: 33.53%; Decrease of metabolite concentration in the VOR group [2, 20]: 55.72% |
| -7.78 | 0.045 ± 0.007 | -2.31 | 4.625 ± 0.337 | -9.07 | 73.581 ± 6.587 | -9.87 | 0.044 ± 0.005 | -1.25 | 4.501 ± 0.411 | 4.073 ± 2.168 | 15.510 ± 1.283 | 14.783 ± 3.501 | 6.863 ± 1.586 | 6.103 ± 2.640 | 5.047 + 0.882 | 8.150 + 1.219 | 6.537 + 0.304 | 3.717 + 0.807 | 3.563 + 1.830 | CC(C)c1c(C(=O)Nc2ccc(O)cc2)c(-c2ccccc2)c(-c2ccc(F)cc2)n1CC[C@@H](O)C[C@@H](O)CC(=O)O [4-Hydroxy-ATO, 4-hydroxy-ATO] | Stability, %RE [1, 10]: -9.69%; Stability, measured concentration (mean ± SD) [1, 10]: 72.334 ± 7.338 ng/mL; Decrease of metabolite concentration in the VOR group [2, 17]: 47.45%; Decrease of metabolite concentration in the VOR group [2, 18]: 41.62%; Decrease of metabolite concentration in the VOR group [2, 19]: 55.78%; Decrease of metabolite concentration in the VOR group [2, 20]: 45.85% |
| – | – | – | – | – | – | – | – | – | – | – | – | – | – | – | – | – | – | – | – | CN(C)C(=O)CCSC(SCCC(=O)O)c1cccc(/C=C/c2ccc3ccc(Cl)cc3n2)c1 (centres unmarked) [MK571] | Effect on the activity (efflux) of ABCC2 (ABCC2): reversed the efflux |

| SMILES | Stability, %RE [1, 7] [%] | Stability, measured concentration (mean ± SD) [1, 7] [ng/mL] | Stability, %RE ([1]; 24 h at 25℃, nominal 5 ng/mL) [%] | Stability, measured concentration (mean ± SD) ([1]; 24 h at 25℃, nominal 5 ng/mL) [ng/mL] | Stability, %RE ([1]; 24 h at 25℃, nominal 80 ng/mL) [%] | Stability, measured concentration (mean ± SD) ([1]; 24 h at 25℃, nominal 80 ng/mL) [ng/mL] | Stability, %RE [1, 8] [%] | Stability, measured concentration (mean ± SD) [1, 8] [ng/mL] | Stability, %RE [1, 9] [%] | Stability, measured concentration (mean ± SD) [1, 9] [ng/mL] | Concentration in human blood samples [2, 11] | Concentration in human blood samples [2, 12] | Concentration in human blood samples [2, 13] | Concentration in human blood samples [2, 14] | Concentration in human blood samples [2, 15] | Concentration in human blood samples [2, 16] | Concentration in human blood samples [2, 21] | Concentration in human blood samples [2, 22] | Concentration in human blood samples [2, 23] | Concentration in human blood samples [2, 24] | other results |
| --- | --- | --- | --- | --- | --- | --- | --- | --- | --- | --- | --- | --- | --- | --- | --- | --- | --- | --- | --- | --- | --- |
| C[C@@H](c1ncncc1F)[C@](O)(Cn1cncn1)c1ccc(F)cc1F [VOR, Voriconazole] | – | – | – | – | – | – | – | – | – | – | 0.007 + 0.012 | 0.000 + 0.000 | 0.007 + 0.012 | 0.000 + 0.000 | 0.007 + 0.012 | 2.870 + 0.325 | 2.673 + 0.465 | 2.563 + 0.122 | 2.780 + 0.317 | 2.820 + 0.540 | IC50 (CYP3A [3]): 49.8 µM; Effect on the activity (efflux) of ABCC2 (ABCC2): no effect; Stability, measured concentration (mean ± SD) ([4]; 0.05 ng/mL): 0.045 ± 0.004 ng/mL; Stability, measured concentration (mean ± SD) ([4]; 5 ng/mL): 4.558 ± 0.318 ng/mL; Stability, measured concentration (mean ± SD) ([4]; 80 ng/mL): 75.238 ± 5.338 ng/mL; Stability, measured concentration (mean ± SD) ([4]; 24 h, 0.05 ng/mL): 0.048 ± 0.004 ng/mL; Stability, measured concentration (mean ± SD) ([4]; 24 h, 5 ng/mL): 4.962 ± 0.301 ng/mL; Stability, measured concentration (mean ± SD) ([4]; 24 h, 80 ng/mL): 79.264 ± 5.131 ng/mL; IC50 at 20 min (CYP3A [5]): 45.9 µM; AUC(0-inf) [6, 25]: 3280 ± 835 ng·h/mL; Cmax [6, 25]: 826 ± 166 ng/mL; Tmax [6, 25]: 0.917 ± 0.204 h; half-life [6, 25]: 2.6 ± 0.419 h; AUC(0-t) [6, 25]: 3250 ± 862 ng·h/mL; AUC(0-inf) ([6]; NS + VOR 20 mg/kg oral): 3640 ± 798 ng·h/mL; Cmax ([6]; NS + VOR 20 mg/kg oral): 829 ± 246 ng/mL; Tmax ([6]; NS + VOR 20 mg/kg oral): 1.25 ± 0.612 h; half-life ([6]; NS + VOR 20 mg/kg oral): 2.58 ± 0.317 h; AUC(0-t) ([6]; NS + VOR 20 mg/kg oral): 3630 ± 802 ng·h/mL; MRT inf ([6]; NS + VOR 20 mg/kg oral, read-out: MRT0-∞): 3.53 ± 0.66 h |
